Test results published in patent publication US20250361214A1, “TRIAZINE LIPIDS, LIPID SYNTHESIS, AND METHODS FOR INHIBITING CANONICAL NFKB TRANSCRIPTIONAL ACTIVITY” (University of Kentucky Research Foundation, priority 2022, published 2025).

How the values were obtained:
HeLa cells = test: Transfection of luciferase plasmid; type: cell-based; conditions: TZ lipid:DOPE 1:1, compared with naked plasmid
Procedure: Transfection of Luciferase Plasmid and Cell Viability. HeLa cells cultured in EMEM (ATCC) supplemented with 10% fetal bovine serum were transferred to a 96 well plate, in quadruplicate, at a density of 20,000 cells per well and incubated for 24 hours at 37° C. in 5% CO2. Liposomes made with a 1:1 ratio of DOPE and TZ lipid were added to 200 ng pGL3 Luciferase Reporter Vector (Promega) at N:P ratios of 2.5, 5 and 10, and incubated at 37° C. for 10 minutes before being diluted in 100 μL of nonsupplemented EMEM and added to the cells. Following a four hour incubation at 37° C., the media was changed, and the cells were incubated for another twenty hours, at which point the cells were lysed with a cell culture lysis reagent at pH 7.8 composed of 25 mM Tris-phosphate buffer, 0.7 g L^−1 1,2-diaminocyclohexane, 10% glycerol, 1% Triton X-100, and 1% protease inhibitor cocktail (Millipore). Total protein content was determined with a bicinchoninic acid assay (G-Biosciences) and luciferase protein expression was quantified by a luciferase assay (Promega). Cell viability was assessed using a Cell Titer Blue assay kit (Promega) based on the manufacturer's instructions. In each of the three independent experiments performed, transfection was compared with cells treated with Lipofectamine 3000 (Thermo), following the manufacturer's instructions, and with DNA treated cells.

in vitro = type: cell-based; conditions: female, C57BL/6J, mouse
Procedure: Cell Culture of Bone Marrow-Derived Macrophages. […] After 7 days, the cells were transferred to tissue culture 96 well plates (Corning) at a density of 100,000 in 20 μL of medium and allowed to settle overnight for subsequent assays.
Lactate Dehydrogenase Release (LDH) Toxicity Assay. For determination of cytotoxicity, mature bone marrow-derived macrophages (BMDM) were treated with 20 μL of the lipids (concentrations denoted in figure legend) diluted in 20 mM HEPES buffer, with HEPES buffer as negative control and 10% Triton X-100 as positive control. After 24 hours, the 96 well plates were centrifuged at 200×g for 5 minutes to remove debris and 100 μL of media was transferred to an untreated flat-bottom 96 well plate. Next, 100 μL of LDH reaction reagent purchased from Cayman Chemical (Ann Arbor, MI) was added to each and allowed to sit for 30 minutes at 37° C. Absorbance at 490 and 680 nm were measured using a BioTek Synergy H1 plate reader and the data were processed using Microsoft Excel. Mean values from triplicates are shown for one of two independent experiments.

## CCCCCCCCCCCCN(CCCCCCCCCCCC)c1nc(NCCCN)nc(NCCCN)n1 [Lipid 3]
HeLa cells
  plasmid transfection (luciferase): better efficacy than the lipids with C18 tails
In vitro
  IC50 at 24 h: 111 µM
